Data reported in ChEMBL document CHEMBL3039007, “Structure-based identification of OATP1B1/3 inhibitors” (Mol Pharmacol, 2013).

Tests used:
[1] = target: T1, Solute carrier organic anion transporter family member 1B1 (Homo sapiens, UniProt Q9Y6L6); conditions: chinese hamster, cho, 10 µM
T1 sequence (Q9Y6L6 whole entry): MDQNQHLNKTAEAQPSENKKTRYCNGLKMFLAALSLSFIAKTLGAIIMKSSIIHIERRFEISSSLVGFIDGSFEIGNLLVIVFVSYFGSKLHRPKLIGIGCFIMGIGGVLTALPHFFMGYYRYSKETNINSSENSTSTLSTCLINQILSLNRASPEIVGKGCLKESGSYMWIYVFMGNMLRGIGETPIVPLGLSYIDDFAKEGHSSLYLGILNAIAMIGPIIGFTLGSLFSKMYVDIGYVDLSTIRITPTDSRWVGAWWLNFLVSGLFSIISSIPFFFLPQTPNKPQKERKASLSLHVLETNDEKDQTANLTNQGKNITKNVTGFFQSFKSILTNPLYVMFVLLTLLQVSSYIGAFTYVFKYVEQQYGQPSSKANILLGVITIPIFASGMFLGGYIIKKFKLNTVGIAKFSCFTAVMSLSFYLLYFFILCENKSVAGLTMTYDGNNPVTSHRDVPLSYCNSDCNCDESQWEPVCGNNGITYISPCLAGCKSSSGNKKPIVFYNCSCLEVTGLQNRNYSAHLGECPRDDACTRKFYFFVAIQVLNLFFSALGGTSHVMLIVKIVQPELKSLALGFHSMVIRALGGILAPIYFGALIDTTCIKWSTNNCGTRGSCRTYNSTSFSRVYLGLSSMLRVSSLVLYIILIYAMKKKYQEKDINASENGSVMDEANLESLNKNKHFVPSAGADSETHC

[2] = target: T2, Solute carrier organic anion transporter family member 1B3 (Homo sapiens, UniProt Q9NPD5); conditions: chinese hamster, cho, 10 µM
T2 sequence (Q9NPD5 whole entry): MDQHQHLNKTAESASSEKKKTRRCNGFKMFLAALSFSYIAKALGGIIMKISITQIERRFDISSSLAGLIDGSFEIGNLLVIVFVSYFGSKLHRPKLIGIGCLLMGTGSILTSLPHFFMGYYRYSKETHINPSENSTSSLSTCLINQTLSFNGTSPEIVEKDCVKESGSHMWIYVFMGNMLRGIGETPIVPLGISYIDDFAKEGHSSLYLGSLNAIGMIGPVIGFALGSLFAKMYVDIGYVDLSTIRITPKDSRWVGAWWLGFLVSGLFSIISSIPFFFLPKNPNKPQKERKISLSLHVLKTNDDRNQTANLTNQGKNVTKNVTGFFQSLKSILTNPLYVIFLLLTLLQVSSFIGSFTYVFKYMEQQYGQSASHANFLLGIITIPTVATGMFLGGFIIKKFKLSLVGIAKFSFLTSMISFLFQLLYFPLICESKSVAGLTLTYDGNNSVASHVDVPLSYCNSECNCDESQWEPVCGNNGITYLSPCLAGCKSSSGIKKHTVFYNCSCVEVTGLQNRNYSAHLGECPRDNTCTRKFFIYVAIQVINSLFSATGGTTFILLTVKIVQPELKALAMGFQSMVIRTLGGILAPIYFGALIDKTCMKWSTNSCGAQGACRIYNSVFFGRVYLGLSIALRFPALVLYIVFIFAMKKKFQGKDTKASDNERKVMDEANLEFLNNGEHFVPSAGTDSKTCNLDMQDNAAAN

SMILES	residual activity [1]	residual activity [2]
CCn1cc(C(=O)O)c(=O)c2cc(F)c(N3CCNCC3)nc21 [ENOXACIN]	111.1%	89.58%
COc1c2c(cc3c1OCO3)CC[N+](C)=C2.[Cl-] [COTARNINE CHLORIDE]	85.95%	93.29%
CO[C@@]1(NC(=O)Cc2cccs2)C(=O)N2C(C(=O)[O-])=C(COC(N)=O)CS[C@@H]21.[Na+] [CEFOXITIN SODIUM]	68.58%	82.79%
Cl.NCc1ccc(S(N)(=O)=O)cc1 [MAFENIDE HYDROCHLORIDE]	81.65%	85.4%
C=CC1=C(C(=O)O)N2C(=O)[C@@H](NC(=O)/C(=N\O)c3csc(N)n3)[C@H]2SC1	92.13%	78.64%
CC1=C(C(=O)O)N2C(=O)[C@@H](NC(=O)[C@H](N)c3ccccc3)[C@H]2SC1 [CEPHALEXIN ANHYDROUS]	94.03%	89.2%
CC[C@@H]1C(=O)OC[C@@H]1Cc1cncn1C.O=[N+]([O-])O [PILOCARPINE NITRATE]	82.84%	95.87%
CO[C@H]1[C@H](O)[C@H](O[C@H]2CC[C@@]3(C=O)[C@H](CC[C@@H]4[C@@H]3CC[C@]3(C)[C@@H](C5=CC(=O)OC5)CC[C@]43O)C2)O[C@@H](C)[C@@H]1O [PERUVOSIDE]	62.43%	112.7%
C/C=C(/C)C(=O)O[C@@H]1Cc2c(ccc3ccc(=O)oc23)OC1(C)C [JATAMANSIN]	165.1%	153%
COC(=O)[C@H]1[C@H]2C[C@H]3c4[nH]c5cc(OC)ccc5c4CCN3C[C@H]2C[C@@H](OC(=O)c2cc(OC)c(OC)c(OC)c2)[C@@H]1OC [ISORESERPINE]	38.5%	42.22%
COC(=O)c1cc(OC)c(=O)c2c(OC)c(OC)ccc2c1 [METHYL 7-DESOXYPURPUROGALLIN-7-CARBOXYLATE TRIMETHYL ETHER]	133.8%	100.1%
C#CCN(C)Cc1ccccc1.Cl [PARGYLINE HYDROCHLORIDE]	99.32%	133.9%
Cc1cc(C(C)(C)C)c(O)c(C)c1CC1=NCCN1.Cl [OXYMETAZOLINE HYDROCHLORIDE]	95.6%	104.7%
C=C[C@@](C)(O)CC[C@H]1C(=C)C[C@H](O)[C@H]2C(C)(C)CCC[C@]12C	48.6%	78.26%
COc1ccc(-c2cc(=O)c3c(O)cc(O)c(-c4cc(-c5cc(=O)c6c(O)cc(O)cc6o5)ccc4OC)c3o2)cc1 [ISOGINKGETIN]	36.16%	63.51%
C[C@@H]1C[C@H]2[C@@H]3C[C@H](F)C4=CC(=O)C=C[C@]4(C)[C@@]3(F)[C@@H](O)C[C@]2(C)[C@@]1(O)C(=O)COC(=O)C(C)(C)C [FLUMETHASONE PIVALATE]	98.41%	107.9%
O=C1c2c(O)cccc2Cc2cccc(O)c21 [ANTHRALIN]	86.38%	90.63%
Cc1cc(NS(=O)(=O)c2ccc(N)cc2)no1 [SULFAMETHOXAZOLE]	104.3%	94.47%
COc1ccccc1/C=C/C(=O)O [COUMARINIC ACID METHYL ETHER]	110.4%	119.3%
Cc1cccc(Nc2ccccc2C(=O)O)c1C [MEFENAMIC ACID]	63.23%	72.63%
COc1ccc2c(c1OC)OC[C@@H](c1ccc(OC)c(OC)c1OC)C2 [DUARTIN, DIMETHYL ETHER]	113.2%	110.8%
O=c1ccc2ccccc2o1 [COUMARIN]	116.6%	99.05%

SMILES	residual activity [1]	residual activity [2]
C[C@@H]1CC[C@]2(NC1)O[C@H]1C[C@H]3[C@@H]4CC=C5C[C@@H](O)CC[C@]5(C)[C@H]4CC[C@]3(C)[C@H]1[C@@H]2C [SOLASODINE]	91.83%	113.6%
CN(C)C(=O)Oc1ccc[n+](C)c1.[Br-] [PYRIDOSTIGMINE BROMIDE]	96.49%	112%
C[C@H]1COc2c(N3CCN(C)CC3)c(F)cc3c(=O)c(C(=O)O)cn1c23.C[C@H]1COc2c(N3CCN(C)CC3)c(F)cc3c(=O)c(C(=O)O)cn1c23.O [LEVOFLOXACIN]	117.4%	95.07%
Cc1c(O)c(O)cc2c1CC=C1[C@@]2(C)CC[C@@]2(C)[C@@H]3C[C@](C)(C(=O)O)CC[C@]3(C)CC[C@]12C [DIHYDROCELASTROL]	70.52%	40.35%
COc1ccccc1OCC(O)COC(N)=O (stereo not drawn) [METHOCARBAMOL]	101.2%	104.7%
c1ccc2c(c1)cc1ccc3cccc4ccc2c1c34	74.44%	70.45%
COc1ccc2oc(-c3ccccc3)c(OC)c(=O)c2c1 [3,6-DIMETHOXYFLAVONE]	99.01%	76.93%
COc1cc2c(c(OC)c1OC)-c1ccc(=O)c(O)cc1[C@@H](NC(C)=O)CC2 [COLCHICEINE]	124%	109.6%
COc1c(Cl)ccc(Cl)c1C(=O)O [3,6 DICHLOROMETHOXYBENZOIC ACID]	88.8%	155.5%
N[C@@H]1C[C@H]1c1ccccc1.N[C@H]1C[C@@H]1c1ccccc1.O=S(=O)(O)O [TRANYLCYPROMINE SULFATE]	73.89%	84.19%
CC(=O)OCC(=O)[C@@]1(O)CC[C@H]2[C@@H]3CCC4=CC(=O)C=C[C@]4(C)[C@H]3[C@@H](O)C[C@@]21C [PREDNISOLONE ACETATE]	63.69%	106.7%
O=C([O-])c1cc(=O)c2c(OCC(O)COc3cccc4oc(C(=O)[O-])cc(=O)c34)cccc2o1.[Na+].[Na+] [CROMOLYN SODIUM]	101.2%	94.62%
C=C1c2cccc(O)c2C(=O)C2=C(O)[C@]3(O)C(=O)C(C(N)=O)=C(O)[C@@H](N(C)C)[C@@H]3[C@@H](O)[C@H]12.Cl [METHACYCLINE HYDROCHLORIDE]	110.8%	110.7%
COP(=S)(OC)Oc1ccc(Sc2ccc(OP(=S)(OC)OC)cc2)cc1 [TEMEFOS]	144.3%	89.27%
CC(C)CCC[C@@H](C)[C@H]1CC[C@H]2[C@@H]3CC(=O)[C@H]4C[C@@H](O)CC[C@]4(C)[C@H]3CC[C@]12C [5alpha-CHOLESTAN-3beta-OL-6-ONE]	101.9%	105.8%
CCc1cccc2c3c([nH]c12)C(CC)(CC(=O)O)OCC3 (stereo not drawn) [ETODOLAC]	68.27%	103.6%
CC1=CC(=O)c2ccccc2C1=O [MENADIONE]	157.5%	112.1%
O=C([O-])P(=O)([O-])[O-].[Na+].[Na+].[Na+] [FOSCARNET SODIUM]	113%	110.8%
CC(=O)O[C@@H]1[C@H]2CC[C@H]3[C@@](C)(O)[C@@H]4C[C@H](O)C(C)(C)[C@@]4(O)[C@H](O)C[C@@]13C[C@@]2(C)O [GRAYANOTOXIN I]	79.68%	95.98%
O=C(CCCN1CCN(c2ccccn2)CC1)c1ccc(F)cc1 [AZAPERONE]	88.32%	108.2%
C[C@]12CC[C@H](O)C[C@@H]1CC[C@@H]1[C@@H]2CC[C@]2(C)C(=O)CC[C@@H]12 [EPIANDROSTERONE]	55.38%	91.34%
COc1cc2ccc(=O)oc2c2ccoc12 [SPHONDIN]	127%	102.5%
